Measurements: patent publication US10335409B2 (priority 2012, dated 2019)

Tests used:
[1] = tested on: genotype 3a (S52) stable HCV replicon in Huh-7-derived cells; experiment: Stable subgenomic HCV replicon EC50, genotype 3a (Renilla luciferase); type: cell-based, hepatitis C virus; details: Hepatitis C virus, 72 h, read-out: EC50 3A RLUC
[2] = tested on: genotype 2a (JFH-1) stable HCV replicon in Huh-7-derived cells; experiment: Stable subgenomic HCV replicon EC50, genotype 2a (Renilla luciferase); type: cell-based, hepatitis C virus; details: Hepatitis C virus, stable replicon genotype 2a, 72 h, read-out: EC50 2A RLUC
In short: (§1)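 Compounds, three-fold diluted, were applied to Huh-7-derived cells harbouring luciferase replicons (genotype 1a H77, 1b Con1, 2a JFH-1, 4a ED43, with strain-specific adaptive mutations). Seventy-two hours later, intracellular replication was gauged by Renilla luciferase activity and EC50 derived by regression.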

[3] = biological target: HCV NS3 protease domain genotype 3a (Hepatitis C virus genotype 3a, UniProt Q81258); experiment: Ki determination, NS3 protease genotype 3a (fluorogenic depsipeptide substrate); type: biochemical; details: 200 pM enzyme, NS4A peptide
Source text: Purified NS3 protease domain (amino acids 1-181) of the genotype 1b and 3a virus were generated as above. The internally quenched fluorogenic depsipeptide substrate Ac-DED(Edans)-EEAbuΨ[COO]ASK(Dabcyl)-NH2 and a synthetic peptide containing the hydrophobic core residues of the NS4A protein cofactor ([…]; NS4A peptide) were obtained from Anaspec, Inc. (San Jose, Calif.). Other chemicals and biochemicals were of reagent grade or better and were purchased from standard suppliers.
Reactions were run at room temperature in buffer consisting of 50 mM HEPES, 40% glycerol, 0.05% Triton X-100, 10 mM DTT, and 10% DMSO. The final assay solutions contained 50 pM NS3 genotype 1 b protease or 200 pM genotype 3a protease, 20 μM NS4A peptide, and 4 μM substrate (genotype 1b) or 2 μM substrate (genotype 3a). Inhibitor concentrations varied from 100 nM to 5 pM in 3-fold dilutions, and no-inhibitor controls were included.
Compound dilutions were made in DMSO at 20× final concentration. Reaction mixtures were prepared in 96-well assay plates. A solution of enzyme and NS4A peptide in assay buffer (25 μL volume with both reagents at 4× final concentration) was mixed with 45 μL assay buffer and 5 μL of either inhibitor or DMSO, and pre-incubated at room temperature for 1 hour. The reaction was started by addition of 25 μL substrate solution at 4× final concentration. Plates were mixed vigorously for 5-10 seconds and reactions were allowed to proceed for 90 minutes, fluorescence was measured every 30 s between 90 and 120 minutes reaction time using a Tecan InfiniTe M1000 or PerkinElmer Envision multimode plate reader with an excitation wavelength of 340 nm and an emission wavelength of 490 nm.
Rates were calculated from the progress curves at steady state, in the time frame of 90-120 minutes after addition of substrate. To determine the Ki, rates were plotted as a function of inhibitor concentration, and the data were fit with equation 1 (Morrison, J. F., Biochimica et Biophysica Acta 1969, 185, 269-286) to calculate Ki^app using GraphPad Prism 5. Active fraction of enzyme was determined by active site titration with known potent inhibitors. Ki was calculated from Ki^app/(1+[[S]/Km]).

[4] = tested on: genotype 1a (H77) stable HCV replicon in Huh-7-derived cells; experiment: Stable subgenomic HCV replicon EC50, genotype 1a (Renilla luciferase); type: cell-based, hepatitis C virus; details: Hepatitis C virus, stable replicon genotype 1a, 72 h, read-out: EC50 1A RLUC
In short: as §1

[5] = tested on: genotype 4a (ED43) stable HCV replicon in Huh-7-derived cells; experiment: Stable subgenomic HCV replicon EC50, genotype 4a (Renilla luciferase); type: cell-based, hepatitis C virus; details: Hepatitis C virus, 72 h, read-out: EC50 4A RLUC
In short: as §1

[6] = tested on: genotype 1b (Con1) stable HCV replicon in Huh-7-derived cells; experiment: Stable subgenomic HCV replicon EC50, genotype 1b (Renilla luciferase); type: cell-based, hepatitis C virus; details: Hepatitis C virus, stable replicon genotype 1b, 72 h, read-out: EC50 1B RLUC
In short: as §1

[7] = tested on: genotype 1a NS3/4a protease inhibitor resistant variant R155K transient HCV replicon in Huh-7-derived cells; experiment: Transient-transfected HCV replicon EC50, genotype 1a R155K; type: cell-based, hepatitis C virus; details: Hepatitis C virus, 72 h, read-out: EC50 1A R155K, transient-transfected replicon genotype 1a R155K resistant variant, 72 h
[8] = tested on: genotype 1a (H77) wild type transient HCV replicon in Huh-7-derived cells; experiment: Transient-transfected HCV replicon EC50, genotype 1a wild type; type: cell-based, hepatitis C virus; details: Hepatitis C virus, 72 h, transient-transfected replicon genotype 1a wild type, read-out: EC50 1A WT
[9] = tested on: genotype 1b (Con1) wild type transient HCV replicon in Huh-7-derived cells; experiment: Transient-transfected HCV replicon EC50, genotype 1b wild type; type: cell-based, hepatitis C virus; details: Hepatitis C virus, 72 h, transient-transfected replicon genotype 1b wild type, read-out: EC50 1B WT
[10] = tested on: genotype 1b NS3/4a protease inhibitor resistant variant D168A transient HCV replicon in Huh-7-derived cells; experiment: Transient-transfected HCV replicon EC50, genotype 1b D168A; type: cell-based, hepatitis C virus; details: Hepatitis C virus, 72 h, read-out: EC50 1B D168A, transient-transfected replicon genotype 1b D168A resistant variant, 72 h
[11] = tested on: genotype 3a (S52) wild type transient HCV replicon in Huh-7-derived cells; experiment: Transient-transfected HCV replicon EC50, genotype 3a wild type; type: cell-based, hepatitis C virus; details: Hepatitis C virus; transient-transfected replicon genotype 3a wild type, 72 h; read-out: EC50 3A WT

Sequence of HCV NS3 protease domain genotype 3a (Q81258 whole entry, looked up, the tested form may be a part): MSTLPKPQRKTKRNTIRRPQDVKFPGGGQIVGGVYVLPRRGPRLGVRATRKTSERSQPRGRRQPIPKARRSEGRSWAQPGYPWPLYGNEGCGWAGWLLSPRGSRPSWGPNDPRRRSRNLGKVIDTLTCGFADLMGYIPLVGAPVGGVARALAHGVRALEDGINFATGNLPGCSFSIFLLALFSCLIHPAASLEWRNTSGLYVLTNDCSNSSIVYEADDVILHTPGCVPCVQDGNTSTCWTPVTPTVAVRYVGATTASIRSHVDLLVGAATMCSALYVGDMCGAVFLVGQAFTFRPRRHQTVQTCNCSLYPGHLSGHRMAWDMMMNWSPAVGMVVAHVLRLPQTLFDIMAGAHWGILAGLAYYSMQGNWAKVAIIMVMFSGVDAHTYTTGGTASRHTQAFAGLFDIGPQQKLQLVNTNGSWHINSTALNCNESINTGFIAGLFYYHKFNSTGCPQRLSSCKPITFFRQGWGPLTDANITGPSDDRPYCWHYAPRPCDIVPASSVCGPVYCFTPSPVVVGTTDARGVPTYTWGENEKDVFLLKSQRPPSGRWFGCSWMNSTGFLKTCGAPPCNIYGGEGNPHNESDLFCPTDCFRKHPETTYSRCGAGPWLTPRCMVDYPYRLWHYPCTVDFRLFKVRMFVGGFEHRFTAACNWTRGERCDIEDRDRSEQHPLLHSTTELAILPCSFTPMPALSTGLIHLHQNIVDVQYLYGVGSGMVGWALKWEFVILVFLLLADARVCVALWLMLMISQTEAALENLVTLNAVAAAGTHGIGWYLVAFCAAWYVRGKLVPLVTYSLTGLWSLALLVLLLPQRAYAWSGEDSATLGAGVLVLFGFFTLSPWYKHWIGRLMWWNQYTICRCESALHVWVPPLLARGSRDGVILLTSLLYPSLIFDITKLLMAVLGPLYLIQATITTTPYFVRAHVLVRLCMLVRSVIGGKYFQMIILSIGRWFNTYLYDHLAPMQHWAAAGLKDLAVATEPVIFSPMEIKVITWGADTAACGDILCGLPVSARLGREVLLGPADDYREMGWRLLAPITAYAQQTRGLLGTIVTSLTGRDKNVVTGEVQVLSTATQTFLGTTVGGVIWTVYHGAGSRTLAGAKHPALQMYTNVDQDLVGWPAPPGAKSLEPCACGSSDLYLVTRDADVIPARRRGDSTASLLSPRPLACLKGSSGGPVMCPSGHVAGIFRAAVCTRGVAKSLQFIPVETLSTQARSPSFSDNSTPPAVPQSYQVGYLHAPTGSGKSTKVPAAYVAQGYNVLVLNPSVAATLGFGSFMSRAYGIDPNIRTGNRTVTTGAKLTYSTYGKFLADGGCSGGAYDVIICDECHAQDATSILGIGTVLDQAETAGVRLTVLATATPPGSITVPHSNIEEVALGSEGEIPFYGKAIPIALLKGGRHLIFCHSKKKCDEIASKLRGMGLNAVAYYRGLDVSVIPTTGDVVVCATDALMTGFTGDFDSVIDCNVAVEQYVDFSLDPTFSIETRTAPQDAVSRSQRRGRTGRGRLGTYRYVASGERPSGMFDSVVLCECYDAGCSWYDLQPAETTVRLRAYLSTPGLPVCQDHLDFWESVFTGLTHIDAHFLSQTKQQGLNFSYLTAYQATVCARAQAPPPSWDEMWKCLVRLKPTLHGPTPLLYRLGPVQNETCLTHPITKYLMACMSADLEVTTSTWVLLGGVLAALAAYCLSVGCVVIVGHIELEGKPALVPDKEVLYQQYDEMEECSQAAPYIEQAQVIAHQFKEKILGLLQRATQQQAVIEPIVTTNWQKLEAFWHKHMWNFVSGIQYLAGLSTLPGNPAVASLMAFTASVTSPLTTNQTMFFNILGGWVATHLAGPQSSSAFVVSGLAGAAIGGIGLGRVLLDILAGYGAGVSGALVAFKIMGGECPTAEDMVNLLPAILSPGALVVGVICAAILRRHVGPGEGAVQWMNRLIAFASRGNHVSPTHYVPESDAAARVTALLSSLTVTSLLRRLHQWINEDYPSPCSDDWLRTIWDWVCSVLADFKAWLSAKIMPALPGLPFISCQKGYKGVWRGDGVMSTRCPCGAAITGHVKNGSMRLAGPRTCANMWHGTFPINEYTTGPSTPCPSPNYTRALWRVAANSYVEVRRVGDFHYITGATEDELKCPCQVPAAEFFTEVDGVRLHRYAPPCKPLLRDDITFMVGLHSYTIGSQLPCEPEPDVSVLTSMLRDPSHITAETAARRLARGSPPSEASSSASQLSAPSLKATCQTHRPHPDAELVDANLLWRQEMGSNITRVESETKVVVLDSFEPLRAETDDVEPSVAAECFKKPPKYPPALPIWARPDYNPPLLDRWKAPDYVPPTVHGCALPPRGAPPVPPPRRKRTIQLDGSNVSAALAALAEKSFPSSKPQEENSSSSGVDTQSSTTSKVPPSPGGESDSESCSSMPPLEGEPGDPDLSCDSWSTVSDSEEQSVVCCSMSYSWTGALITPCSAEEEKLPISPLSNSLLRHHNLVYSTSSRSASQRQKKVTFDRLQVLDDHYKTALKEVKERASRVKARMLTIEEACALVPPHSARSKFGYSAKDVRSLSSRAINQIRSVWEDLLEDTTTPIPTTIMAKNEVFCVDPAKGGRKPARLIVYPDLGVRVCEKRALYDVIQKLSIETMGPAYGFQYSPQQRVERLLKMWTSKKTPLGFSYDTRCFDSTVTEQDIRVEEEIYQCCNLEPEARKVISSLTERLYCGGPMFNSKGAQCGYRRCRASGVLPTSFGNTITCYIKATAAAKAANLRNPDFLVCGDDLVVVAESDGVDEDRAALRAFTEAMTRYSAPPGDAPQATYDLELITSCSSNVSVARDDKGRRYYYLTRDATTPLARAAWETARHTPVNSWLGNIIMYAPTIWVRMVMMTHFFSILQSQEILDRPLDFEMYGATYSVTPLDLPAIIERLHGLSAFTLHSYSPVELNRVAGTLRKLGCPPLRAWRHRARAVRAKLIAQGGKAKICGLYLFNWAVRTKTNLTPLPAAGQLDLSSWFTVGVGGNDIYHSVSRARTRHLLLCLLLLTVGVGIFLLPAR

SMILES	EC50 [1] [nM]	EC50 [2] [nM]	Ki [3] [nM]	EC50 [4] [nM]	EC50 [5] [nM]	EC50 [6] [nM]	EC50 [7] [nM]	EC50 [8] [nM]	EC50 [9] [nM]	EC50 [10] [nM]	EC50 [11] [nM]
CC[C@@H]1[C@@H]2CN(C(=O)[C@H](C3CCCCC3)NC(=O)O[C@@H]3C[C@H]3CCCCCc3nc4ccc(OC)cc4nc3O2)[C@@H]1C(=O)N[C@]1(C(=O)NS(=O)(=O)C2(C)CC2)C[C@H]1C(F)F [Example 16, (1aR,5S,8S,9S,10R,22aR)-5-cyclohexyl-N-[(1R,2R)-2-(difluoromethyl)-1-{[(1-methylcyclopropyl)sulfonyl]carbamoyl}cyclopropyl]-9-ethyl-14-methoxy-3,6-dioxo-1,1a,3,4,5,6,9,10,18,19,20,21,22,22a-tetradecahydro-8H-7,10-methanocyclopropa[18,19][1,10,3,6]dioxadiazacyclononadecino[11,12-b]quinoxaline-8-carboxamide]	201	6.2	0.21	12	8.1	7.4					
COc1ccc2nc3c(nc2c1)O[C@H]1CN(C(=O)[C@H](C(C)(C)C)NC(=O)O[C@@H]2C[C@H]2CCCCC3)[C@H](C(=O)N[C@]2(C(=O)NS(=O)(=O)C3(C)CC3)C[C@H]2C(F)F)[C@@H]1C [Example 18, (1aR,5S,8S,9S,10R,22aR)-5-tert-butyl-N-[(1R,2R)-2-(difluoromethyl)-1-{[(1-methylcyclopropyl)sulfonyl]carbamoyl}cyclopropyl]-14-methoxy-9-methyl-3,6-dioxo-1,1a,3,4,5,6,9,10,18,19,20,21,22,22a-tetradecahydro-8H-7,10-methanocyclopropa[18,19][1,10 3,6]dioxadiazacyclononadecino[11,12-b]quinoxaline-8-carboxamide]	70	5	0.1	3.9	2.8	2.6					
C=C[C@@H]1C[C@]1(NC(=O)[C@@H]1[C@H](CC)[C@@H]2CN1C(=O)[C@H](C(C)(C)C)NC(=O)O[C@@H]1C[C@H]1CCCCC(F)(F)c1nc3ccc(OC)cc3nc1O2)C(=O)NS(=O)(=O)C1CC1 [Example 92, (1aR,5S,8S,9S,10R,22aR)-5-tert-butyl-N-{(1R,2S)-1-[(cyclopropylsulfonoyl)carbamoyl]-2-ethenylcyclopropyl}-9-ethyl-18,18-difluoro-14-methoxy-3,6-dioxo-1,1a,3,4,5,6,9,10,18,19,20,21,22,22a-tetradecahydro-8H-7,10-methanocyclopropa[18,19][1,10,3,6]dioxadiazacyclononadecino[11,12-b]quinoxaline-8-carboxamide]	58	4.6		3.3	3.2	3.2	3	3	1.7	5.3	8
CC[C@@H]1[C@@H]2CN(C(=O)[C@H](C(C)(C)C)NC(=O)O[C@@H]3C[C@H]3CCCCC(F)(F)c3nc4ccc(OC)cc4nc3O2)[C@@H]1C(=O)NC1(C(=O)NS(=O)(=O)C2(C)CC2)C[C@H]1CC (stereo partly drawn) [Example 93, (1aR,5S,8S,9S,10R,22aR)-5-tert-butyl-9-ethyl-N-[(2R)-2-ethyl-1-{[(1-methylcyclopropyl)sulfonyl]carbamoyl}cyclopropyl]-18,18-difluoro-14-methoxy-3,6-dioxo-1,1a,3,4,5,6,9,10,18,19,20,21,22,22a-tetradecahydro-8H-7,10-methanocyclopropa[18,19][1,10,3,6]dioxadiazacyclononadecino[11,12-b]quinoxaline-8-carboxamide]	116	15		12	11	14	13	13	14	39	26
CC[C@@H]1[C@@H]2CN(C(=O)[C@H](C(C)(C)C)NC(=O)O[C@@H]3C[C@H]3CCCCC(F)(F)c3nc4ccc(OC)cc4nc3O2)[C@@H]1C(=O)NC1(C(=O)NS(=O)(=O)C2CC2)C[C@H]1C(F)F (stereo partly drawn) [Example 94, (1aR,5S,8S,9S,10R,22aR)-5-tert-butyl-N-[(2R)-1-[(cyclopropylsulfonyl)carbamoyl]-2-(difluoromethyl)cyclopropyl]-9-ethyl-18,18-difluoro-14-methoxy-3,6-dioxo-1,1a,3,4,5,6,9,10,18,19,20,21,22,22a-tetradecahydro-8H-7,10-methanocyclopropa[18,19][1,10,3,6]dioxadiazacyclononadecino[1,12-b]quinoxaline-8-carboxamide]	32	3.3		3.8	3	5.2	3.1	3.2	1.9	9.2	10
C[C@@H]1[C@@H]2CN(C(=O)[C@H](C(C)(C)C)NC(=O)O[C@@H]3C[C@@H]4C[C@@H]4[C@H]3CC/C=C/Cn3c(nc4cc(Cl)ccc4c3=O)O2)[C@@H]1C(=O)N[C@]1(C(=O)NS(=O)(=O)C2(C)CC2)C[C@H]1C(F)F [Example 96, (1aS,2aR,6S,9S,10S,11R,21E,24aR,24bS)-6-tert-butyl-15-chloro-N-[(1R,2R)-2-(difluoromethyl)-1-{[(1-methylcyclopropyl)sulfonyl]carbamoyl}cyclopropyl]-10-methyl-4,7,18-trioxo-1a,2,2a,4,5,6,7,10,11,20,23,24,24a,24b-tetradecahydro-1H,9H,18H-8,11-methanocyclopropa[4′,5′]cyclopenta[1′,2′:18,19][1,10,3,6,12]dioxatriazacyclononadecino[11,12-b]quinazoline-9-carboxamide]	77	5.4		12	8.9	11	3.8	5.2	4.1	3.6	12
C[C@@H]1[C@@H]2CN(C(=O)[C@H](C(C)(C)C)NC(=O)O[C@@H]3C[C@@H]4C[C@@H]4[C@H]3CCCCCc3nc4ccc(C#N)cc4nc3O2)[C@@H]1C(=O)NC1(C(=O)NS(=O)(=O)C2(C)CC2)C[C@H]1C(F)F (stereo partly drawn) [Example 97, (1aS,2aR,6S,9S,10S,11R,23aR,23bS)-6-tert-butyl-15-cyano-N-[(2R)-2-(difluoromethyl)-1-{[(1-methylcyclopropyl)sulfonyl]carbamoyl}cyclopropyl]-10-methyl-4,7-dioxo-1a,2,2a,4,5,6,7,10,11,19,20,21,22,23,23a,23b-hexadecahydro-1H, 9H-8,11-methanocyclopropa[4′,5′]cyclopenta[1′,2′:18,19][1,10,3,6]dioxadiazacyclononadecino[11,12-b]quinoxaline-9-carboxamide]	67	5.8		6.3	5.3	4.6	3.7	3.6	2.5	8.8	5.8
